Results from US12543767B2, “Oral supplements containing enriched phenolic compound extracts combined with organic acid sodium salts, creatines and/or creatine salts” (Phenolics, LLC, priority 2021, dated 2026).
Where “and” joins values, the source holds several entries; their conditions need not be identical. Identical values can stand only once.

What was measured:
[1] = test system: CaCo2 cell model for intestinal barrier; experiment: Diffusion of extract polyphenols/flavonoids through confluent CaCo2 monolayer in side by side diffusion cells; type: in vitro ADME; details: 10 mM alpha, beta or gamma cyclodextrin with blueberry polyphenol solution ~1 mg/ml
men = experiment: Clinical study: fatigue test, 50 maximal unilateral isokinetic leg extensions, before and after 28 days of supplementation; type: in vivo; details: for Peak Torque: mean of first three repetitions
Experimental: The supplements were designed to be as similar as possible in volume, color, and taste, and included 5.0 g of phosphocreatine disodium salts plus 200 mg of blueberry extract in the supplements for the Phosphocreatine/Blueberry Group, 3.0 g of creatine monohydrate for the Creatine Group, and microcrystalline cellulose for the placebo group. The bulk powder mixtures were sieved through a 60-mesh sieve to ensure inform particle size and to get rid of the agglomerates. They were then blended for one hour using an Erweka V-mixer (Model AR 403, Erweka America Inc., Edison, NJ) prior to packaging. Homogeneity of mixing was visually confirmed with the coloring agents used. Blended powders were accurately weighed (mass±1%) into individual foil lined pouches using a calibrated balance (Model SX 410, Denver Instruments, Bohemia, NY) and heat sealed. Five quality control samples were randomly selected from the packaged batch throughout the packaging process to ensure even distribution of contents, verified by mass for all samples and for creatine content in non-placebo samples by HPLC analysis.
The study was implemented as a double-blind, placebo-controlled, parallel design study. The study included a familiarization visit with each of the participants, a pre-supplementation test visit, 28 days of daily supplementation, and a post-supplementation test visit. During the testing visits, the subjects performed the fatigue test of Thorstensson and Karlsson which consisted of 50 maximal, unilateral, concentric, isokinetic leg extensions of the left leg at 180°·s^−1.
After completion of the pre-supplementation test visit, the participants were randomly assigned to one of the three groups described above. The subjects were provided with 28 days of individually packaged packets of powder of their assigned supplement and were instructed to mix the contents of the packet with 8 oz of water and drink it immediately after mixing. The subjects were instructed to maintain their usual exercise and dietary habits throughout the study. Each subject completed a 3-day dietary recall form and a 7-day exercise recall form prior to the pre-supplementation testing visit and prior to the post-supplementation testing visit to determine if there were changes in total caloric and macronutrient intake as well as exercise time during the supplementation period.
Before and after the 28 day supplementation regimens, peak torque, average power and percent decline for peak torque and average power were assessed from a fatigue test consisting of 50 maximal, unilateral, isokinetic leg extensions at 180°·s^−1.
During both pre-supplementation and post-supplementation test visits, peak torque and average power were assessed during the fatigue tests. Peak torque and average power were defined as the mean values from the first three repetitions of the fatigue test. Average power was operationally defined in the as the time averaged, integrated area under the isokinetic torque curve. To calculate the average power, the voltage-time relationships were converted to the isokinetic torque curve by converting the voltage to torque in N·m based on a regression equation. Integration of the area under the torque curve was accomplished using a custom LabVIEW program (National Instrument, Austin, TX, USA) and the average power was then calculated by dividing the integrated area under the torque curve by the time for each isokinetic repetition.

[2] = pre- to post-supplement, 28 days, monohydrate

| Compound | effect of cyclodextrin on permeation of blueberry phenolics thru the CaCo2 membrane [1] | Average Power (men; Post-Supplement (28 days)) [Watts] | Peak Torque (men; Post-Supplement (28 days)) | Average Power (men; Pre-Supplement) [Watts] | Peak Torque (men; Pre-Supplement) | Average Power Change (%) (men; [2]) | Peak Torque Change (%) (men; [2]) |
| --- | --- | --- | --- | --- | --- | --- | --- |
| OC[C@H]1O[C@@H]2O[C@H]3[C@H](O)[C@@H](O)[C@@H](O[C@H]4[C@H](O)[C@@H](O)[C@@H](O[C@H]5[C@H](O)[C@@H](O)[C@@H](O[C@H]6[C@H](O)[C@@H](O)[C@@H](O[C@H]7[C@H](O)[C@@H](O)[C@@H](O[C@H]8[C@H](O)[C@@H](O)[C@@H](O[C@H]1[C@H](O)[C@H]2O)O[C@@H]8CO)O[C@@H]7CO)O[C@@H]6CO)O[C@@H]5CO)O[C@@H]4CO)O[C@@H]3CO [beta cyclodextrin] | best effect on increasing the permeation | – | – | – | – | – | – |
| CN(CC(=O)O)C(=N)N.O [Creatine Group, creatine monohydrate] | – | 159.78 ± 31.20 | 111.97 ± 24.50 | 143.42 ± 33.84 | 99.95 ± 22.50 | 10.22% and 10.22 ± 13.62% | 10.47% and 10.47 ± 11.03% |
